Reference: ChEMBL document CHEMBL1177693, “Antimalarials from nature” (Bioorg Med Chem, 2009)
Values after ≈ are worked out from the molar mass of the structure shown.

What follows are compounds tested on Plasmodium falciparum (assay: Antimalarial activity against Plasmodium falciparum). Conditions: not given.
Type: functional, organism-based

Row | Compound | fold change (FC)
1 | C=C(COCc1ccc(Br)cc1)[C@@H]1CC[C@]2(C)CC[C@]3(C)[C@H](CC[C@@H]4[C@@]5(C)CC[C@H](OC(=O)CCCCCCC(N)=O)C(C)(C)[C@@H]5CC[C@]43C)[C@@H]12 | 7

Same assay, conditions: Plasmodium falciparum

Row | IC50 | MIC [µM] | EC50 [µg/mL] | Compound
2 | 2.7 µg/mL | – | – | CC(C)=CCc1c(O)cc2oc3ccc4c(c3c(=O)c2c1O)C=CC(C)(C)O4 [CALOTHWAITESIXANTHONE]
3 | 0.061 µg/mL | – | – | C/C=C(\C)C(=O)O[C@@H]1[C@H]2C(C)=CC(=O)[C@@H](O)[C@]2(C)[C@H]2[C@]3(O)OC[C@@]24[C@@H]1OC(=O)C[C@H]4[C@@H](C)[C@H]3O
4 | 1.79 µg/mL | – | – | CC(=O)Oc1cc(C)c(OC(C)=O)c2c1[nH]c1ccccc12
5 | – | 13.1 (≈ 5.58 µg/mL) | – | C=C(C)[C@@H]1CC[C@]2(C)CC[C@]3(C)[C@H](CC[C@@H]4[C@@]5(C)CC[C@H](O)C(C)(C)[C@@H]5CC[C@]43C)[C@@H]12 [LUPEOL]
6 | 4.8 µg/mL | – | – | C=C[C@@]12COC(=O)C(=C)[C@@H]1[C@@H](O)[C@H](C(=C)C(=O)OC)[C@@H](OC(=O)C(=C)CO)C2 [VERNODALOL]
7 | 4.97 µM | – | – | COC(=O)/C(=C/C[C@H]1[C@@]2(CC[C@H]3C(C)(C)CCC[C@@]31C)CO2)C1CO1 (some centres not stated)
8 | 0.0242 µg/mL | – | – | COc1cc2c(cc1O)CCN(C)[C@H]2Cc1ccc(Oc2c3c(cc(OC)c2OC)-c2c(OC)c(OC)c(O)c4c2[C@@H](C3)N(C)CC4)cc1
9 | 0.0112 µg/mL | – | – | COc1cc2c(cc1O)CCN(C)[C@H]2Cc1ccc(Oc2c(O)c(OC)cc3c2C[C@@H]2c4c(cc(OC)c(OC)c4-3)CCN2C)cc1
10 | 3.2 µg/mL | – | – | C=C1C([C@@]2(C)C=CC(=O)C(C)(C)[C@@H]2[C@H](OC(C)=O)C(=O)OC)CC[C@@]2(C)[C@H](c3ccoc3)OC(=O)C[C@]12O (some centres not stated) [DOMESTICULIDE B]
11 | 28.3 µM | – | – | CC1(C)CC[C@]2(C(=O)O)CC[C@]3(C)C(=CC[C@@H]4[C@@]5(C)CC[C@@H](O)C(C)(C)[C@@H]5CC[C@]43C)[C@@H]2C1
12 | 4.76 µg/mL | – | – | COc1cc2c(cc1OC)[C@@H]1C[C@H](C[C@H]3CCCCN31)OC(=O)/C=C\c1ccc(O)c-2c1 [VERTINE]
13 | – | – | 0.5 (≈ 1.78 µM) | C[C@H]1[C@H](O)CCC2=CC(=O)[C@@]3([C@@]4(CO)CO4)O[C@@H]3[C@@]21C
14 | 24.3 µg/mL | – | – | CC(=O)O[C@@H]1C(=O)c2c(O)cc(O)cc2O[C@@H]1c1ccc(O)cc1
15 | 1.5 µg/mL | – | – | COC1=C(OC)C(=O)C([C@H]2COc3c(cc(OC)c(OC)c3OC)C2)=CC1=O [ABRUQUINONE B]
16 | 5.13 µM | – | – | CC(C)=CCc1cc(/C=C/C(=O)c2cc(CC=C(C)C)c(O)cc2O)ccc1O [STIPULIN]
17 | 8.5 µg/mL | – | – | C=CC(C)(C)c1c2c(c(OC)c3ccc(=O)oc13)C=CC(C)(C)O2 [DENTATIN]

Row | IC50 | MIC [µM] | EC50 [µg/mL] | Compound
18 | > 20 µg/mL | – | – | C=C1C2CC[C@@]3(C)[C@H](c4ccoc4)OC(=O)C[C@]13O[C@H]1CC(=O)C(C)(C)[C@H](C(O)C(=O)OC)[C@@]21C (some centres not stated) [6-HYDROXYANGOLENSIC ACID METHYL ESTER]
19 | 42.3 µg/mL | – | – | CC1(C)C(=O)CC[C@]2(C)[C@H]3CC(O)[C@@H]4[C@@]5(C)CC[C@](O)(C(C)(C)O)[C@H]5[C@@H](O[C@H]5OC[C@@H](O)[C@@H](O)[C@@H]5O)C[C@@]4(C)[C@]3(C)CC[C@@H]12 (mixture of isomers) [GLINOSIDE A]
20 | 1.8 µg/mL | – | – | C=C(C)C(=O)O[C@H]1C[C@H](C)C2=CC(=O)[C@](C)(/C=C3/OC(=O)C(COC(C)=O)=C31)O2
21 | 15 µM | – | – | CCCCCCCCCCCCCCCC1CC(=O)NCCCNCCCCNCCCN1 (configuration not stated) [BUDMUNCHIAMINE L5]
22 | 4.3 µg/mL | – | – | CC1=CC(=O)C[C@@H]2[C@@](C)(CC[C@H](C)CC(=O)O)[C@H](C)C(=O)C[C@@]12C
23 | 2.4 µM | – | – | Cc1cc(O)c2c(c1)[C@@H]([C@H]1O[C@H](OC(=O)c3ccccc3)[C@@H](O)[C@@H](O)[C@@H]1O)c1cccc(O)c1C2=O
24 | 16.5 µM | – | – | C=C1C(=O)O[C@@H]2/C=C(/C)C3=CC(=O)[C@](C)(O3)[C@H](O)[C@@H](OC(=O)CC(C)C)[C@@H]12 [LOBATIN B]
25 | 1.1 µg/mL | – | – | COc1c2c(cc(O)c1-c1cc(-c3ccc4c(-c5c(O)cc(O)c6c5C[C@@H](C)N[C@@H]6C)c(C)cc(OC)c4c3O)c(O)c3c(OC)cc(C)cc13)C[C@@H](C)N=C2C [KORUNDAMINE A]
26 | 0.54 µg/mL | – | – | C=C1C(=O)[C@@]23CC[C@H]4[C@@]5(C)CCC[C@@]4(OC5=O)[C@@]2(C)CC[C@]1(OC)C3
27 | 6.7 µM | – | – | O=C1c2ccc(O)cc2O[C@H](c2ccc(O)cc2)[C@H]1[C@@H]1C(=O)c2ccc(O)cc2O[C@H]1c1ccc(O)cc1
28 | 38.3 µM | – | – | CC(O)c1cncc2c(=O)n3c(cc12)-c1[nH]c2ccc(O)cc2c1CC3 (configuration not stated) [NAUCLEOFFICINE E]
29 | 0.0102 µg/mL | – | – | COc1cc2c(cc1OC)[C@H](Cc1ccc(Oc3c(O)c(OC)cc4c3C[C@@H]3c5c(c(O)c(OC)c(OC)c5-4)CCN3C)cc1)N(C)CC2
30 | 1.5 µg/mL | – | – | COc1cc2c(=O)c3c(O)c(C/C=C(\C)CCC=C(C)C)c(O)cc3oc2cc1O [COWAXANTHONE]
31 | 3.36 µM | – | – | CC1(C)C=Cc2c(ccc(C(=O)/C=C/c3ccc(O)cc3)c2O)O1
32 | – | – | 0.9 (≈ 2.64 µM) | COc1ccc2c(c1O)CCc1cc(O)c(C)c3c1C2CC(C)(C)O3 (stereo not drawn) [RACEMOSOL]

The remaining lines, values behind:

Row | Compound | IC50 | MIC [µM] | EC50 [µg/mL]
33 | C=C1CC[C@@H]2[C@@](C)(COC(=O)/C=C/c3ccc(O)cc3)CCC[C@@]2(C)[C@@H]1CC[C@H](C)CC(=O)O | 4.3 µg/mL | – | –
34 | COc1cc(O)c(C(=O)CCc2ccccc2)c(O)c1[C@H]1C=C(C)CC[C@@H]1C(C)C | 5.64 µM | – | –
35 | C/C1=C\[C@H]2O[C@](C)(CC[C@@H]2[C@@]2(C)CO2)[C@@H](O)CC/C(C)=C/CC1 | 15 µg/mL | – | –
36 | CC1=CC(=O)[C@@H](O)[C@]2(C)[C@H]3[C@]4(O)OC[C@@]35[C@@H](C[C@@H]12)OC(=O)[C@H](O)[C@@]5(O)[C@@]1(CO1)[C@H]4O [PASAKBUMIN B] | 0.0226 µg/mL | – | –
37 | C=C1C(=O)[C@@]23CC[C@H]4[C@@]5(C)CCC[C@@]4(OC5=O)[C@@]2(C)CC[C@@H]1C3 | 1.57 µg/mL | – | –
38 | C=C1[C@@H](O)[C@@]2(O)OC[C@]34[C@H]2[C@@]2(C)[C@H](O)C(=O)C=C(C)[C@@H]2C[C@H]3OC(=O)[C@H](O)[C@@]14O [EURYCOMANONE] | 0.04 µg/mL | – | –
39 | C=C(C)C(=O)O[C@@H]1C[C@@]2(C)OC(=CC2=O)/C(CO)=C\[C@H]2OC(=O)C(=C)[C@@H]21 | 1.2 µg/mL | – | –
40 | O[C@H]1[C@H]2c3cc4c(cc3CN3CCC(=C[C@@H]1O)[C@H]23)OCO4 [LYCORINE] | 0.62 µg/mL | – | –
41 | COc1cc2c(cc1O)[C@@H]1C[C@H](C[C@H]3CCCCN31)OC(=O)/C=C\c1ccc(O)c-2c1 | 2.8 µg/mL | – | –
42 | CO[C@H]1[C@@H](O)[C@H](O[C@H]2[C@@H](OC)C[C@H](O[C@H]3[C@@H](OC)C[C@@H](O[C@H]4CC[C@@]5(C)C(=CC[C@@H]6[C@@H]5C[C@@H](OC(=O)c5ccccc5)[C@]5(C)[C@@H]([C@H](C)OC(C)=O)CC[C@]65O)C4)O[C@@H]3C)O[C@@H]2C)O[C@H](C)[C@H]1O | 6.25 µg/mL | – | –
43 | CC1=CC(=O)[C@@H](O)[C@]2(C)[C@H]3[C@]4(O)OC[C@@]35[C@@H](C[C@@H]12)OC(=O)[C@H](O)[C@@]5(O)[C@H](C)[C@H]4O [PASAKBUMIN C] | 0.0933 µg/mL | – | –
44 | C=C[C@@]12COC(=O)C(=C)[C@@H]1[C@H]1OC(=O)[C@@H](C)[C@@H]1[C@@H](OC(=O)C(=C)CO)C2 | 1.1 µg/mL | – | –
45 | COc1cc2c3cc1Oc1c(OC)c(OC)cc4c1[C@H](Cc1ccc(OC)c(c1)-c1cc(ccc1O)C[C@H]3N(C)CC2)N(C)CC4 | 1.14 µM | – | –
46 | C=C1C(=O)[C@@]23CC[C@H]4[C@@]5(C)CCC[C@@]4(OC5=O)[C@@]2(C)CC[C@]1(O)C3 | 0.67 µg/mL | – | –
47 | C/C=C(/CO[C@H]1O[C@@H](CO)[C@H](O)[C@@H](O)[C@@H]1O)c1cc2n(c(=O)c1CO)CCc1c-2[nH]c2ccccc12 [NAUCLEOFFICINE A] | 9.7 µM | – | –
48 | O=C1O[C@@H]2[C@@H](OC(=O)c3cc(O)c(O)c(O)c3-c3c1cc(O)c(O)c3O)[C@H](O)O[C@@H]1COC(=O)c3cc(O)c(O)c(O)c3-c3c(O)c(O)c4oc(=O)c5c(c(O)c(O)c6oc(=O)c3c4c65)-c3c(cc(O)c(O)c3O)C(=O)O[C@@H]21 (racemic) [PUNICALAGIN] | 27.7 µg/mL | – | –
49 | CC[C@H](C)[C@@H]([C@@H](CC(=O)N1CCC[C@H]1[C@H](OC)[C@@H](C)C(=O)N[C@@H](Cc1ccccc1)c1nccs1)OC)N(C)C(=O)[C@@H](NC(=O)[C@H](C(C)C)N(C)C)C(C)C [DOLASTATIN-10] | 0.0001 µM | – | –
50 | COc1cc2c3c(c1O)Oc1ccc(cc1)C[C@@H]1c4c(cc(OC)c(O)c4Oc4ccc(cc4)C[C@H]3N(C)CC2)CCN1C [ISOCHONDODENDRINE] | 0.892 µM | – | –
51 | C/C(=C\[C@@H](O)[C@H](O)[C@@H](C)C1=CC[C@@]2(C)C[C@@H]3[C@H](C)CC[C@@H]3/C(C(=O)O)=C\C[C@H]12)C(=O)O [HALOROSELLINIC ACID] | 13 µg/mL | – | –
52 | COc1ccc2cc1Oc1cc3c(cc1OC)CCN(C)[C@@H]3Cc1ccc(cc1)Oc1c(O)c(OC)cc3c1[C@@H](C2)N(C)CC3 | 0.353 µM | – | –
53 | C=C(C)C(O)Cc1cc(C(=O)/C=C/c2ccc(O)c(CC=C(C)C)c2)c(O)cc1O (configuration not stated) [BARTERICIN A] | 2.15 µM | – | –
54 | C=C1C(=O)O[C@@H]2/C=C(/CO)C3=CC(=O)[C@@](C)(C[C@@H](OC(=O)/C(C)=C\C)[C@@H]12)O3 | 0.3 µg/mL | – | –
55 | C=CC(C)(C)c1cc2c(O)c3c(c(C(C)(C)C=C)c2oc1=O)OC(C)(C)C=C3 [CLAUSARIN] | 0.1 µg/mL | – | –
56 | C[C@@]12C=C3OC[C@]4(C)C=CC(=O)[C@@](C)([C@@H]34)[C@@]13O[C@H]3C[C@@]1(C)[C@H](C3=CC(O)OC3=O)C[C@H]3O[C@@]321 (mixture of isomers) [TRICHIRUBINE A] | 0.3 µg/mL | – | –
57 | O=C1OC(O)C(Cl)=C1Cl (configuration not stated) [MUCOCHLORIC ACID] | 0.137 µg/mL | – | –
58 | C[C@@H]1CC[C@H]2C(C)(C)[C@H](O)CC[C@]2(C)[C@@]12Cc1c(O)cc(C=O)c(C=O)c1O2 | 0.85 µg/mL | – | –
59 | CC1=CC(=O)c2c(O)cccc2C1=O [PLUMBAGIN] | 0.27 µM | – | –
60 | O=C1OC(O)C(Br)=C1Br (configuration not stated) [MUCOBROMIC ACID] | 0.359 µg/mL | – | –
61 | C=C1C(=O)O[C@@H]2C[C@@H](C)[C@@H]3C=CC(=O)[C@@]3(C)[C@@H](O)[C@H]12 [HELENALIN] | 0.23 µM | – | –
62 | C=C(CO)[C@@]12O[C@@H]1[C@@]1(C)C(=CC2=O)CC[C@@H](O)[C@@H]1C | – | – | 0.32 (≈ 1.21 µM)
